Consider nine molecules from patent US5760176A, “Hydrophobic attachment site for adhesion peptides” (La Jolla Cancer Research Foundation, priority 1996, dated 1998).

This assay relates to MG-63 cells.
Setting [1] is: Table III, phenylalanine as a hydrophobic domain, 100 μg/well.

Read-outs that look alike come from different tables or passages of the source. Non-standard residues stand in square brackets, D forms with d. Residues, ends and D or L forms follow the SMILES beside them. Sar = CNCC(=O)O

Protocol: The peptides were solubilized in 70% EtOH at a starting concentration of 1 mg/ml. […] The remaining wells contained 100 μl of 70% EtOH. Taking 100 μl from the 1 mg/ml solution in the first two wells, a serial dilution was performed out to 0.15 μg/well for each peptide. The plates were allowed to dry overnight at 37° C. in the presence of a desiccator.
The following day the peptide coated plates were used in a standard adhesion assay as described in Example III, using MG-63 cells, an osteosarcoma cell line available from American Type Tissue Culture.
The plates were washed lX using PBS, (151 mM NaCl/10 mM sodium phosphate, pH 7.4). The plates were incubated with DMEM (0.1 ml/well) containing bovine serum albumin (BSA 2.5 mg/ml; Sigma Chemical Co., St. Louis, Mo.) for one hour. Two×10^5 cells/ml (MG-63) were suspended in DMEM, and BSA (2.5 mg/ml). 100 μl of cell suspension was added per well and the plates are incubated at 37° C. in 7.5% CO2 /92.5% air for one hour. Afterwards, the plate was washed once in PBS. Attached cells were then fixed with 3% paraformaldehyde and stained overnight with 1% toluidine blue in 10% formaldehyde. The following day, the excess stain was removed and the plates were washed with H2 O; 100 μl of a 1% sodium dodecyl sulfate (SDS) solution was added to each well. The level of cell attachment was then measured, using a kinetic microplate reader (Molecular Devices,) by assessing the optical density at 630 nm.

For the molecule `CCCCCCCCCCCCCC(=O)O` [Myristic acid], the “percentage of maximum binding (cell attachment)” value (shortened to “percentage of maximum binding”) is, setting by setting: (Table IV, myristic acid as hydrophobic carrier, 100 μg/well) 33 percentage of maximum binding; (Table IV, 6 μg/well) 45 percentage of maximum binding; (Table IV, 12 μg/well) 75 percentage of maximum binding; (Table IV, 25 μg/well) 50 percentage of maximum binding; (Table IV, 50 μg/well) 30 percentage of maximum binding.

On to `CNCC(=O)N[C@H](CCCNC(=N)N)C(=O)NCC(=O)N[C@@H](CC(=O)O)C(=O)N[C@@H](CO)C(=O)N1CCC[C@H]1C(=O)N[C@@H](C)C(=O)N[C@@H](CO)C(=O)N[C@@H](CO)C(=O)N[C@@H](CCCCN)C(=O)N[C@@H](CC(C)C)C(=O)N[C@@H](CC(C)C)C(=O)N[C@@H](CC(C)C)C(=O)N[C@@H](CC(C)C)C(=O)N[C@@H](CC(C)C)C(=O)N[C@@H](CC(C)C)C(N)=O` [nMeG(dR)GDSPASSKL6 NH2] (H-[Sar][dR]GDSPASSKLLLLLL-NH2), for which the “percentage of maximum binding” value is given as 9 percentage of maximum binding.

In the case of `CNCC(=O)N[C@H](CCCNC(=N)N)C(=O)NCC(=O)N[C@@H](CC(=O)O)C(=O)N[C@@H](CO)C(=O)N1CCC[C@H]1C(=O)N[C@@H](C)C(=O)N[C@@H](CO)C(=O)N[C@@H](CO)C(=O)N[C@@H](CCCCN)C(=O)N[C@@H](CO)C(=O)N[C@@H](CO)C(=O)N[C@@H](CCCNC(=N)N)C(=O)N[C@@H](CC(C)C)C(=O)N[C@@H](CC(C)C)C(=O)N[C@@H](CC(C)C)C(=O)N[C@@H](CC(C)C)C(=O)N[C@@H](CC(C)C)C(=O)N[C@@H](CC(C)C)C(=O)N[C@@H](CCCNC(=N)N)C(N)=O` [nMeG(dR)GDSPASSKS2 RL6 RNH2] (H-[Sar][dR]GDSPASSKSSRLLLLLLR-NH2), the “percentage of maximum binding” value was 38 percentage of maximum binding.

For `CNCC(=O)N[C@H](CCCNC(=N)N)C(=O)NCC(=O)N[C@@H](CC(=O)O)C(=O)N[C@@H](CO)C(=O)N1CCC[C@H]1C(=O)N[C@@H](C)C(=O)N[C@@H](CO)C(=O)N[C@@H](CO)C(=O)N[C@@H](CCCCN)C(=O)N[C@@H](CO)C(=O)N[C@@H](CO)C(=O)N[C@@H](CO)C(=O)N[C@@H](CO)C(=O)N[C@@H](CCCNC(=N)N)C(=O)N[C@@H](CC(C)C)C(=O)N[C@@H](CC(C)C)C(=O)N[C@@H](CC(C)C)C(=O)N[C@@H](CC(C)C)C(=O)N[C@@H](CC(C)C)C(=O)N[C@@H](CC(C)C)C(=O)N[C@@H](CCCNC(=N)N)C(N)=O` [nMeG(dR)GDSPASSKS4 RL6 RNH2] (H-[Sar][dR]GDSPASSKSSSSRLLLLLLR-NH2), the “percentage of maximum binding” value is listed as 76 percentage of maximum binding.

For XG(R)GDSPASSKL4 NH2 [Peptide L4], the “percentage of maximum binding” value (Table II, 1.5 μg/well peptide, MG-63 cells) is given as 1 percentage of maximum binding; the “percentage of maximum binding” value (Table II, 3 μg/well peptide, MG-63 cells) was 1 percentage of maximum binding; the “percentage of maximum binding” value (Table II, 6 μg/well peptide, MG-63 cells) is 2 percentage of maximum binding; the “percentage of maximum binding” value (Table II, 12 μg/well peptide, MG-63 cells) was 10 percentage of maximum binding; the “percentage of maximum binding” value (Table II, 25 μg/well peptide, MG-63 cells) is 16 percentage of maximum binding; the “percentage of maximum binding” value (Table II, 50 μg/well peptide, MG-63 cells) is listed as 12 percentage of maximum binding. In addition, for the setting “Table II, 100 μg/well peptide dried onto well, MG-63 cells”, the “percentage of maximum binding” value was 44 percentage of maximum binding. Besides, the “promotion of cell attachment (result in words)” value (peptide coated 100 to 1.5 μg/well, MG-63 cells, summary of Table II) is recorded as “promoted marginal cell attachment only at the highest concentration of 100 μg/well”.

Take nMEGRGDSPASSKRF6 RNH2: the “percentage of maximum binding” value runs as follows: under setting [1], 70 percentage of maximum binding; (Table III, 1.5 μg/well) 50 percentage of maximum binding; (Table III, 3 μg/well) 54 percentage of maximum binding; (Table III, 6 μg/well) 57 percentage of maximum binding; (Table III, 12 μg/well) 52 percentage of maximum binding; (Table III, 25 μg/well) 56 percentage of maximum binding. In addition, the “percentage of maximum binding” value (Table III, 50 μg/well) is 75 percentage of maximum binding.

“nMeG(dR)GDSPASSKRF4 RNH2 [nMeGRGDSPASSKRF4 RNH2]”: the “percentage of maximum binding” value by setting is: under setting [1], 70 percentage of maximum binding; (Table III, 1.5 μg/well) 34 percentage of maximum binding; (Table III, 3 μg/well) 50 percentage of maximum binding; (Table III, 6 μg/well) 56 percentage of maximum binding; (Table III, 12 μg/well) 59 percentage of maximum binding; (Table III, 25 μg/well) 60 percentage of maximum binding. In addition, under “Table III, 50 μg/well”, the “percentage of maximum binding” value is given as 73 percentage of maximum binding.

For nMeGRGDSPASSKRL5 RNH2, the “percentage of maximum binding” value runs as follows: under setting [1], 72 percentage of maximum binding; (Table III, 1.5 μg/well) 34 percentage of maximum binding; (Table III, 3 μg/well) 44 percentage of maximum binding; (Table III, 6 μg/well) 60 percentage of maximum binding; (Table III, 12 μg/well) 66 percentage of maximum binding; (Table III, 25 μg/well) 58 percentage of maximum binding. Besides, the “percentage of maximum binding” value (Table III, 50 μg/well) is given as 68 percentage of maximum binding.

With nMeGRGDSPASSKS3 RF6 RNH2, the “percentage of maximum binding” value by setting is: under setting [1], 69 percentage of maximum binding; (Table III, 1.5 μg/well) 70 percentage of maximum binding; (Table III, 3 μg/well) 70 percentage of maximum binding; (Table III, 6 μg/well) 65 percentage of maximum binding; (Table III, 12 μg/well) 66 percentage of maximum binding; (Table III, 25 μg/well) 60 percentage of maximum binding. Further, the “percentage of maximum binding” value (Table III, 50 μg/well) is recorded as 69 percentage of maximum binding.
